Results from patent US11395847B2, “Acylated GLP-1/GLP-2 dual agonists” (Zealand Pharma A/S, priority 2016, dated 2022).
Where a SMILES comes first, the peptide text is derived from it.

What was measured:
[1] = tested on: Normal chow-fed C57BL/6J male mice; assay: Effect on fasting glucose and intestinal weight in normal mice; format: in vivo; conditions: for Small intestinal wet weight: 100 nmol/kg s.c. once daily for 4 days, sacrificed 24 hours after final dosing; for Fasting blood glucose: 100 nmol/kg s.c., day 0 after a single injection, fasted mice
Description: Normal chow-fed C57BL/6J male mice were used. The mice were kept in standard housing conditions, light-, temperature-, and humidity-controlled room (12:12 h light-dark cycle, with lights on at 06.00-18.00 h; 20-22° C.; 50-80% relative humidity). Each dosing group consisted of 6 animals. Mice were dosed once daily with 100 nmol/kg with the test compounds or vehicle for 4 days via subcutaneous administration.
On day 0 mice were fasted and blood glucose levels measured after a single s.c. injection with peptides. Animals were sacrificed 24 hours after final dosing on day 3, and small intestinal wet weights were measured.

[2] = Chemical stability (RP-HPLC normalized purity after incubation at 40° C.); format: physicochemical; conditions: 14-day incubation, 0.2 mg/ml, normalized purity (area-%)
Summary of the method: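 Peptide at 0.2 mg/ml final in water adjusted to pH 6, 7, 7.5 or 9, incubated at 40° C for 14 days. Purity measured as main-peak area-% by C18 RP-HPLC (acetonitrile/TFA/water gradient, UV 220 nm) and normalized to T=0 set at 100 for each pH.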

CC[C@H](C)[C@H](NC(=O)[C@H](Cc1ccccc1)NC(=O)[C@H](CC(=O)O)NC(=O)[C@H](CCCNC(=N)N)NC(=O)[C@H](C)NC(=O)[C@H](C)NC(=O)[C@H](CCCCN)NC(=O)[C@H](CCCCNC(=O)CC[C@H](NC(=O)CCCCCCCCCCCCCCCCC(=O)O)C(=O)O)NC(=O)[C@H](CC(=O)O)NC(=O)[C@H](CC(C)C)NC(=O)[C@@H](NC(=O)[C@@H](NC(=O)[C@H](C)NC(=O)[C@H](CC(C)C)NC(=O)[C@H](CCC(=O)O)NC(=O)[C@H](CO)NC(=O)[C@@H](NC(=O)[C@H](Cc1ccccc1)NC(=O)[C@H](CO)NC(=O)CNC(=O)[C@H](CCC(=O)O)NC(=O)C(C)(C)NC(=O)[C@@H](N)Cc1c[nH]cn1)[C@@H](C)O)[C@@H](C)O)[C@@H](C)CC)C(=O)N[C@@H](C)C(=O)N[C@@H](Cc1c[nH]c2ccccc12)C(=O)N[C@@H](CC(C)C)C(=O)N[C@H](C(=O)N[C@@H](CCC(=O)O)C(=O)N[C@@H](Cc1c[nH]cn1)C(=O)N[C@@H](CCCCN)C(=O)N[C@H](C(=O)N[C@H](C(=O)N[C@@H](CC(=O)O)C(=O)O)[C@@H](C)O)[C@@H](C)CC)[C@@H](C)CC [Compound 5] (HELM PEPTIDE1{H.[Aib].E.G.S.F.T.S.E.L.A.T.I.L.D.K.K.A.A.R.D.F.I.A.W.L.I.E.H.K.I.T.D}|PEPTIDE2{[O=C(O)CCCCCCCCCCCCCCCCC(=O)[*:2]].[gGlu]}$PEPTIDE1,PEPTIDE2,16:R3-2:R2$$$V2.0)
Small intestinal wet weight [1]: 1.35 g
Fasting blood glucose [1]: 4.60 mM
pH 6 normalized stability ([2]; pH 6, 40° C.): A (>90% normalised stability)
pH 7 normalized stability ([2]; pH 7, 40° C.): A (>90% normalised stability)

CC[C@H](C)[C@H](NC(=O)[C@H](Cc1ccccc1)NC(=O)[C@H](CC(=O)O)NC(=O)[C@H](CCCNC(=N)N)NC(=O)[C@H](C)NC(=O)[C@H](C)NC(=O)[C@H](CCC(N)=O)NC(=O)[C@H](CCCCNC(=O)COCCOCCNC(=O)[C@H](CCCCN)NC(=O)[C@H](CCC(=O)O)NC(=O)[C@H](CCCCN)NC(=O)CC[C@H](NC(=O)CCCCCCCCCCCCCCCCCCC(=O)O)C(=O)O)NC(=O)[C@H](CC(=O)O)NC(=O)[C@H](CC(C)C)NC(=O)[C@@H](NC(=O)[C@@H](NC(=O)[C@H](C)NC(=O)[C@H](CC(C)C)NC(=O)[C@H](CCC(=O)O)NC(=O)[C@H](CO)NC(=O)[C@H](CO)NC(=O)[C@H](Cc1ccccc1)NC(=O)[C@@H](NC(=O)CNC(=O)[C@H](CCC(=O)O)NC(=O)C(C)(C)NC(=O)[C@@H](N)Cc1c[nH]cn1)[C@@H](C)O)[C@@H](C)O)[C@@H](C)CC)C(=O)N[C@@H](C)C(=O)N[C@@H](Cc1c[nH]c2ccccc12)C(=O)N[C@@H](CC(C)C)C(=O)N[C@H](C(=O)N[C@@H](CCC(N)=O)C(=O)N[C@@H](Cc1c[nH]cn1)C(=O)N[C@@H](CCCCN)C(=O)N[C@H](C(=O)N[C@H](C(=O)N[C@@H](CC(=O)O)C(=O)O)[C@@H](C)O)[C@@H](C)CC)[C@@H](C)CC [Compound 48] (HELM PEPTIDE1{H.[Aib].E.G.T.F.S.S.E.L.A.T.I.L.D.K.Q.A.A.R.D.F.I.A.W.L.I.Q.H.K.I.T.D}|PEPTIDE2{[O=C(O)CCCCCCCCCCCCCCCCCCC(=O)[*:2]].[gGlu].K.E.K.[O=C(COCCOCCN[*:1])[*:2]]}$PEPTIDE1,PEPTIDE2,16:R3-6:R2$$$V2.0)
Small intestinal wet weight [1]: 1.41 g
Fasting blood glucose [1]: 5.08 mM
